Test results taken from ChEMBL document CHEMBL1201862, “PubChem BioAssay data set” (2004).
Active and inactive are the calls of the source.

What was measured:
[1] = target: T1, Apoptotic protease-activating factor 1 (Homo sapiens, UniProt O14727); test: SAR analysis of small molecule Activators of Apaf-1 in a Fluorescent assay - set 2.; assay type: functional; settings: read-out: EC50_Mean
T1 sequence (O14727 whole entry): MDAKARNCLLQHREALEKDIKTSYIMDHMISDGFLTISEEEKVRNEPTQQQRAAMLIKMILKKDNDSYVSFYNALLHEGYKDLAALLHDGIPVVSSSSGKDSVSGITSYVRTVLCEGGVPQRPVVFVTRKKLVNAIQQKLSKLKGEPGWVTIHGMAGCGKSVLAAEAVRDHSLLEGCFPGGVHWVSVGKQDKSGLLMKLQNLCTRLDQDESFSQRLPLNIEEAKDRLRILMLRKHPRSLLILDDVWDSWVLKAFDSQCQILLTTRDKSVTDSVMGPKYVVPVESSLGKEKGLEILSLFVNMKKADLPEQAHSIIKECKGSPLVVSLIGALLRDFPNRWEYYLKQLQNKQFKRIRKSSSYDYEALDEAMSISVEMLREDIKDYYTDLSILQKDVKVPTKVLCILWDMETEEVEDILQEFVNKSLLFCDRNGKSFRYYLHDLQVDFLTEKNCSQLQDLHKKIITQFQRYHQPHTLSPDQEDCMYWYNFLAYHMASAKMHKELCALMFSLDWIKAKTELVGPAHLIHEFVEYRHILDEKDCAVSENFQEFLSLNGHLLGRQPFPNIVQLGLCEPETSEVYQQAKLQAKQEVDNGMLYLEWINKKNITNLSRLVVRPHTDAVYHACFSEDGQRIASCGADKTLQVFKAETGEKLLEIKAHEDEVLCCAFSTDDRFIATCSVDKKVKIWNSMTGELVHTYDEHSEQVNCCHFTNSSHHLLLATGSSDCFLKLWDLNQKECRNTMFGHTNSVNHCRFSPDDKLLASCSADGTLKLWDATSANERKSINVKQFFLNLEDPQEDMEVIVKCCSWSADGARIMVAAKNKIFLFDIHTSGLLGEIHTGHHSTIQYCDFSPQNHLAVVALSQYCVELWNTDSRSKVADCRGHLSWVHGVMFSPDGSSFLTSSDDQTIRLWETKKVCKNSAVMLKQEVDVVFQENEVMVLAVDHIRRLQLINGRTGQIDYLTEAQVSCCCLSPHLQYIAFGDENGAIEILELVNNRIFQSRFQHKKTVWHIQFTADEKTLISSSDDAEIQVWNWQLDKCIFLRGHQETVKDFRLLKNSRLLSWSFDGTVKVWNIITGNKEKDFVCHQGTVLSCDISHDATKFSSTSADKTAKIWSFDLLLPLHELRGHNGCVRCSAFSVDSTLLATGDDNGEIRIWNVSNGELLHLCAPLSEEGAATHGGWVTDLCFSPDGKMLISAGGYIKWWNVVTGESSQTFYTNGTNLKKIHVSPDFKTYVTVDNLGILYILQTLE

[2] = SAR analysis of small molecule activators of Apaf-1 using a LZ-Caspase-9/Caspase-3 Fluorescent Selectivity assay - Set 2.; assay type: functional; settings: read-out: EC50_Mean

CC(Cn1cccn1)C(=O)O (configuration not stated)
EC50 [1]: > 100 µM (inactive)
EC50 [2]: > 100 µM (inactive)
